Experiment [1] relates to newly established Abies nordmanniana embryogenic cell lines. Description: Maturation in newly established Abies nordmanniana embryogenic cultures. The experiment is classed as cell-based. The conditions noted are these: 8 weeks maturation, 40 μM ABA and 25 μM PCIB from week 2 to 4; cell lines less than 6 months old. Here is the method:
Approximately 50 cell lines were initiated from mature seeds in the same way as cell line G.78.14 (Example 1). The cultures were initiated and maintained on modified half strength BLG medium (See example 1). The cultures were less than 6 months old when they were subjected to maturation. The cultures were plated as described in Example 1. The cultures were subjected to two different maturation protocols. • 1) Maturation for 8 weeks on culture medium comprising 40 μM ABA and 5% PEG-4000. • 2) Maturation for as 1) but from week 2 to 4 the cultures were on culture medium comprising 40 μM ABA and 25 μM PCIB.

Experiment [2] concerns Picea abies embryogenic cell lines D.2.9, D.4.1, D.7.1. As to the kind of experiment: Maturation in embryogenic cultures of Picea abies. The experiment is classed as cell-based. Here is the method: Three embryogenic cell lines, D.2.9, D.4.1, D.7.1, of Picea abies, initiated from immature seeds in 1989 and kept in cryostorage until 1998 as described by Nørgaard et al (1993) were used for the present experiment. The cultures were maintained on semi-solid proliferation medium BMI-S1 (Krogstrup 1986) gelled with 1.8 g/L gelrite by biweekly sub-cultures. Prior to transfer to maturation medium, 4 grams of cell mass from each cell line was weighed off and transferred to 50 ml liquid proliferation medium in a 250 ml Erlenmeyer flask. The flask also contained a sterile magnet.
To disintegrate the cultures they were stirred for 5 minutes using a magnet stirrer. Then the flasks were shaken for 15 minutes on a rotary shaker at 175 rpm. The medium with suspended cell aggregates were subsequently poured into a 100 ml measuring cylinder and allowed to settle for 30 minutes. The supernatant was discarded and aliquots of 1 ml of cells were plated on sterile Whatman #54 paper discs placed an the various maturation media. Three replicate dishes were made for each combination of cell line and treatment.
Five maturation protocols were tested. • A: Maturation on BMG-1 medium (Krogstrup et al 1988) modified by increasing the ABA concentration to 40 μM. • B: As A, but from week 2 to week 4 maturation on culture medium comprising 2.5 μM PCIB and 40 μM ABA. • C: As A, but from week 2 to week 4 maturation on culture medium comprising 5.0 μM PCIB and 40 μM ABA. • D: Maturation on medium comprising 2.5 μM PCIB and 40 μM ABA. • E: Maturation an medium comprising 5.0 μM PCIB and 40 μM ABA. Results

In the case of `CC(C)(Oc1ccc(Cl)cc1)C(=O)O` [PCIB, p-Chlorophenoxyisobutyric acid], the “production of mature somatic embryos” value is given as “almost all cell lines produced high numbers of mature somatic embryos” in experiment [1] and “a high number of mature somatic embryos are in turn produced” in experiment [2] (cell line D.2.9, anti-auxin step (2.5 or 5.0 μM PCIB + 40 μM ABA)). Further, the “number of somatic embryos compared with no anti-auxin step” value in experiment [2] (cell lines D.4.1 and D.7.1 (A-type), 2.5 or 5.0 μM PCIB + 40 μM ABA) is recorded as “produced higher numbers of somatic embryos”. Besides, the proliferation during maturation result in experiment [2] (cell lines D.4.1 and D.7.1, 2.5 or 5.0 μM PCIB + 40 μM ABA) was “reduce the proliferation during maturation”.

The values above are taken from US6897065B1, “Method for maturation of conifer somatic embryos” (Woody Plant Biotech APS, priority 1999, dated 2005).
